# According to the NIST ThermoML archive (doi:10.1016/j.jct.2014.07.011):
# ± gives the expanded uncertainty stated by the source.
# What was measured:
# [1] = Crystal; DTA
# [2] = Molar enthalpy of transition or fusion; conditions: Crystal; DSC
smiles,measurement,setting,value
CC(=O)S[C@@H]1CC2=CC(=O)CC[C@]2(C)[C@H]2CC[C@@]3(C)[C@@H](CC[C@@]34CCC(=O)O4)[C@H]12 [spironolactone],Normal melting temperature,[1],208.42 ± 1.1 °C
same,Molar enthalpy of transition or fusion,[2],20.8 ± 1.3 kJ/mol
